Earlier results on one compound are cited in article PMC12521730, “Quantitative dual-isotope preclinical SPECT/CT imaging and biodistribution of the mercury-197m/g theranostic pair with [^197m/gHg]HgCl2 and a [^197m/gHg]Hg-tetrathiol complex as a platform for radiopharmaceutical development” (EJNMMI Radiopharmacy and Chemistry, 2025).

Details of series [1]: method as in Randhawa et al. [2023]. To be noted: 72 h; ref Randhawa et al. [2023]; cited from earlier work.
The conditions of series [2]: 24 h; ref Randhawa et al. [2023]; cited from earlier work.

The structures appear in SMILES notation.

With `O=C(CN1CCSCCSCCSCCSCC1)NCc1ccccc1.[Hg+2]` [NS4-BA complex], in series [1], the “intact complex when challenged against GSH” value was 92 ± 1%. The “intact complex in human serum” value in series [2] is 74 ± 7%.
